Experiments:
BplA (Ca 0589) = molecular target: T1, BplA (Ca 0589) (Clostridium acetobutylicum, UniProt Q97LH2); experiment: TLC of […]Bio-5′-AMP; format: biochemical; conditions: 25 uM biotin, 5 uM ATP, 5.5 mM MgCl2, pH 8.0, room temperature; acceptor B. subtilis AccB-86
T1 sequence (Q97LH2 1-270): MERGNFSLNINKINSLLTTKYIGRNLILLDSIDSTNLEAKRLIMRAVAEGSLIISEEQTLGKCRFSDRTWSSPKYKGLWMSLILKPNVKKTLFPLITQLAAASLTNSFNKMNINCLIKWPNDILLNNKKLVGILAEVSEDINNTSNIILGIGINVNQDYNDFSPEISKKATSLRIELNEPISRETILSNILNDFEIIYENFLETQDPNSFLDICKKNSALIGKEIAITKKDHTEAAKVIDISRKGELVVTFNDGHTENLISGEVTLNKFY

[1] = molecular target: BirA′ (protein encoded by Clostridium acetobutylicum gene Ca 0212), purified (Clostridium acetobutylicum (strain ATCC 824)); experiment: SEC

| Molecule | TLC of [32P]Bio-5′-AMP; AccB-86 native gel shift; MS/MS of product (BplA (Ca 0589)) | stoichiometry N [1] |
| --- | --- | --- |
| O=C(O)CCCC[C@@H]1SC[C@@H]2NC(=O)N[C@@H]21 [biotin] | In reactions with BplA, formation of the Bio-5′-AMP intermediate was detected upon biotin addition | – |
| BirA′ (protein encoded by Clostridium acetobutylicum gene Ca 0212), purified (natural protein) | – | 2 |

— article PMC9048407 (Molecular microbiology, 2021)
